Results from US20070104644A1, “Inhibitor imaging agents” (priority 2003, published 2007).

Experiments:
[1] = tested on: ApoE −/− mice, carotid artery; assay: Biodistribution in ApoE ligation model of atherosclerosis (ligated and sham); type: in vivo
Text: ApoE −/− mice are transgenic knock-out mice, which lack the ApoE gene, and are therefore unable to regulate their plasma cholesterol levels. As a consequence ApoE mice develop atherosclerotic lesions, a process which is accelerated with feeding of high fat diet. Further acceleration of lesion development can be achieved by ligating the carotid artery, resulting in advanced lesion formation within 4 weeks of surgery and high fat diet feeding.
Two controls have been used for these experiments: (1) ApoE sham animals in which the mice undergo the same surgical intervention but the sture is only passed beneath the carotid and then removed and, (2) C57BL/6 ligtaed animals which undergo the same surgical ligation and high fat feeding as the ApoE ligated mice. Literature reports have stated that these animals do have some level of tissue remodelling, but with lower active MMP levels [Ivan et al, Circulation, 105, 2686-2691 (2002)].

[2] = tested on: Lewis lung carcinoma (LLC) tumour; assay: Biodistribution in LLC tumour model in vivo; set-up: species or system C57BL/6 mice
Experimental: 1×10^6 Lewis lung carcinoma (LLC) cells are injected subcutaneously into right inner thigh of C57BL/6 mice. Tumours were allowed to grow for 15 days prior to biodistribution being carried out.
Biodistribution studies were performed in the LLC tumour model.
Biodistribution was performed in the LLC tumour model of Example 23 with Compounds 46B and 48B.

[3] = ApoE Ligated, 5 min post injection
[4] = ApoE Ligated, 60 min post injection
[5] = ApoE Sham, 60 min post injection

| Compound | % ID Urinary (urinary excretion), mean ([2]; 5 min post injection) [% ID] | % ID/g Tumour, mean ([2]; 5 min post injection) [% ID/g] | Tumour/Blood, mean ([2]; 5 min post injection) | Tumour/Heart, mean ([2]; 5 min post injection) | Tumour/Lung, mean ([2]; 5 min post injection) | Tumour/Muscle, mean ([2]; 5 min post injection) | % ID Urinary (urinary excretion), mean ([2]; 30 min post injection) [% ID] | % ID/g Tumour, mean ([2]; 30 min post injection) [% ID/g] | Tumour/Blood, mean ([2]; 30 min post injection) | Tumour/Heart, mean ([2]; 30 min post injection) | Tumour/Lung, mean ([2]; 30 min post injection) | Tumour/Muscle, mean ([2]; 30 min post injection) | % ID Urinary (urinary excretion), mean ([2]; 60 min post injection) [% ID] | % ID/g Tumour, mean ([2]; 60 min post injection) [% ID/g] | Tumour/Blood, mean ([2]; 60 min post injection) | Tumour/Heart, mean ([2]; 60 min post injection) | Tumour/Lung, mean ([2]; 60 min post injection) | Tumour/Muscle, mean ([2]; 60 min post injection) | % ID Urinary (urinary excretion), mean ([2]; 120 min post injection) [% ID] | % ID/g Tumour, mean ([2]; 120 min post injection) [% ID/g] | further results |
| --- | --- | --- | --- | --- | --- | --- | --- | --- | --- | --- | --- | --- | --- | --- | --- | --- | --- | --- | --- | --- | --- |
| NC(=O)[C@H](Cc1ccc(O)c([123I])c1)NC(=O)CCOCCOCCOCCOCCOCCOCCOCCOCCOCCOCCOCCNC(=O)CCOCCOCCOCCOCCOCCOCCOCCOCCOCCOCCOCCNC(=O)CCN(C1(C(=O)NO)CCCC1)S(=O)(=O)c1ccc(Oc2ccc(F)cc2)cc1 [Compound 32A] | 9.82 | 2.58 | 0.16 | 0.48 | 0.30 | 1.66 | 35.20 | 2.67 | 0.26 | 0.75 | 0.43 | 2.80 | 54.06 | 2.03 | 0.43 | 1.31 | 0.69 | 4.88 | 64.10 | 1.34 | % ID/G Carotid, mean [1, 3]: 10.32 % ID/G; Carotid/Blood, mean [1, 3]: 0.46; Carotid/Heart, mean [1, 3]: 1.39; Carotid/Lung, mean [1, 3]: 1.01; % ID/G Carotid, mean [1, 4]: 10.85 % ID/G; Carotid/Blood, mean [1, 4]: 1.21; Carotid/Heart, mean [1, 4]: 3.94; Carotid/Lung, mean [1, 4]: 1.45; % ID/G Carotid, mean [1, 5]: 2.91 % ID/G; Carotid/Blood, mean [1, 5]: 0.69; Carotid/Heart, mean [1, 5]: 1.28; Carotid/Lung, mean [1, 5]: 0.70; Blood clearance / retention [2]: high initial blood retention, which cleared with time; GI excretion [2]: low GI excretion; Tumour uptake and retention [2]: Good tumour uptake and retention were seen up to 1 hour post injection; Urinary excretion [2]: High urinary excretion; Tumour/Blood, mean ([2]; 120 min post injection): 0.53; Tumour/Heart, mean ([2]; 120 min post injection): 1.54; Tumour/Lung, mean ([2]; 120 min post injection): 0.55; Tumour/Muscle, mean ([2]; 120 min post injection): 3.92 |
| NC(=O)[C@H](CCCCNC(=O)CON=Cc1ccc([18F])cc1)NC(=O)CCOCCOCCOCCOCCOCCOCCOCCOCCOCCOCCOCCNC(=O)CCOCCOCCOCCOCCOCCOCCOCCOCCOCCOCCOCCNC(=O)CCN(C1(C(=O)NO)CCCC1)S(=O)(=O)c1ccc(Oc2ccc(F)cc2)cc1 [Compound 48B] | 0.24 | 2.53 | 0.11 | 0.40 | 0.26 | 1.55 | 15.29 | 2.33 | 0.24 | 0.84 | 0.47 | 2.92 | 56.89 | 1.81 | 0.51 | 1.69 | 0.95 | 4.40 | 59.33 | 1.62 | % ID/G Carotid, mean [1, 3]: 12.01 % ID/G; Carotid/Blood, mean [1, 3]: 0.40; Carotid/Heart, mean [1, 3]: 1.27; Carotid/Lung, mean [1, 3]: 0.75; % ID/G Carotid, mean [1, 4]: 10.34 % ID/G; Carotid/Blood, mean [1, 4]: 0.96; Carotid/Heart, mean [1, 4]: 2.71; Carotid/Lung, mean [1, 4]: 1.42; % ID/G Carotid, mean [1, 5]: 2.37 % ID/G; Carotid/Blood, mean [1, 5]: 0.2; Carotid/Heart, mean [1, 5]: 0.81; Carotid/Lung, mean [1, 5]: 0.25; Tumour/Blood, mean ([2]; 120 min post injection): 0.41; Tumour/Heart, mean ([2]; 120 min post injection): 1.52; Tumour/Lung, mean ([2]; 120 min post injection): 0.77; Tumour/Muscle, mean ([2]; 120 min post injection): 3.55 |
| NC(=O)[C@H](Cc1ccc(O)c([123I])c1)NC(=O)COCC(=O)NCCOCCOCCOCCNC(=O)[C@H](CCC(=O)O)NC(=O)[C@H](CCC(=O)O)NC(=O)[C@H](CCC(=O)O)NC(=O)[C@H](CCC(=O)O)NC(=O)[C@H](CCC(=O)O)NC(=O)CCN(C1(C(=O)NO)CCCC1)S(=O)(=O)c1ccc(Oc2ccc(F)cc2)cc1 [Compound 38A] | 6.37 | 2.08 | 0.13 | 0.29 | 0.33 | 1.22 | 40.17 | 2.14 | 0.30 | 0.90 | 0.73 | 2.19 | 68.53 | 1.06 | 0.45 | 1.25 | 0.83 | 2.27 | 78.75 | 0.42 | Tumour/Blood, mean ([2]; 120 min post injection): 0.52; Tumour/Heart, mean ([2]; 120 min post injection): 1.14; Tumour/Lung, mean ([2]; 120 min post injection): 0.64; Tumour/Muscle, mean ([2]; 120 min post injection): 1.82 |
| NC(=O)[C@H](CCCCNC(=O)CON=Cc1ccc([18F])cc1)NC(=O)CCN(C1(C(=O)NO)CCCC1)S(=O)(=O)c1ccc(Oc2ccc(F)cc2)cc1 [Compound 46B] | 6.60 | 0.42 | 0.18 | 0.37 | 0.21 | 1.16 | 12.00 | 0.53 | 0.47 | 1.15 | 0.55 | 2.06 | 15.02 | 0.32 | 0.73 | 1.54 | 0.60 | 2.02 | 19.68 | 0.31 | % ID/G Carotid, mean [1, 3]: 0.88 % ID/G; Carotid/Blood, mean [1, 3]: 0.42; Carotid/Heart, mean [1, 3]: 0.49; Carotid/Lung, mean [1, 3]: 0.35; % ID/G Carotid, mean [1, 4]: 0.44 % ID/G; Carotid/Blood, mean [1, 4]: 0.61; Carotid/Heart, mean [1, 4]: 1.11; Carotid/Lung, mean [1, 4]: 0.53; Tumour/Blood, mean ([2]; 120 min post injection): 0.73; Tumour/Heart, mean ([2]; 120 min post injection): 1.33; Tumour/Lung, mean ([2]; 120 min post injection): 0.80; Tumour/Muscle, mean ([2]; 120 min post injection): 1.81 |
| NC(=O)[C@H](Cc1ccc(O)c([123I])c1)NC(=O)COCC(=O)NCCOCCOCCOCCNC(=O)CCN(C1(C(=O)NO)CCCC1)S(=O)(=O)c1ccc(Oc2ccc(F)cc2)cc1 [Compound 20A] |  |  |  |  |  |  |  |  |  |  |  |  |  |  |  |  |  |  |  |  | Decrease in HBS (hepatobiliary) excretion compared to Compound 24A [2]: 10%; Increase in urinary excretion compared to Compound 24A [2]: 10%; Tumour retention compared to Compound 24A [2]: slightly increased; Uptake into the tumour compared to Compound 24A [2]: slightly lower |
